From PubChem BioAssay (NCI) come the findings set out here.

Some test systems named below: RPMI-8226 leukemia; SN12C renal; SK-MEL-28 melanoma; COLO 205 colon; LOX IMVI melanoma; UACC-62 melanoma; HCC-2998 colon; OVCAR-8 ovarian; SF-539 CNS; K-562 leukemia; MOLT-4 leukemia; NCI-H460 lung; SF-268 CNS; M14 melanoma; UACC-257 melanoma; SF-295 CNS; NCI/ADR-RES ovarian; EKVX NSCLC.
Test in all cases: growth of human tumour cells (NCI), 48 h

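96-well plates; 48 h exposure; 5 concentrations. Endpoints by linear interpolation between flanking doses. Not reached: highest tested concentration assigned. TGI marks complete inhibition of growth.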 Bounds are passed on as bounds.

Regarding `CN(C)CCCN1c2ccccc2Sc2ccc3ccccc3c21`, the TGI amounted to 7.45 µM in the experiment with RPMI-8226 leukemia; 22.9 µM in the experiment with SN12C renal; 4.26 µM in the experiment on SK-MEL-28 melanoma; 10 µM in the experiment on COLO 205 colon; 19.8 µM with LOX IMVI melanoma; 9.62 µM in the experiment on UACC-62 melanoma. The TGI amounted to 3.04 µM in the experiment on HCC-2998 colon; 27.1 µM in the experiment with OVCAR-8 ovarian; 30.9 µM in the experiment on SF-539 CNS; 5.56 µM in the experiment on K-562 leukemia; 10.1 µM in the experiment with MOLT-4 leukemia; 7.66 µM in the experiment on NCI-H460 lung. Besides, the TGI in the experiment on SF-268 CNS was 23.4 µM; in the experiment with M14 melanoma, 3.3 µM; with UACC-257 melanoma, 4.1 µM; in the experiment with SF-295 CNS, 26.3 µM; in the experiment with NCI/ADR-RES ovarian it was 22.5 µM; with EKVX NSCLC, 23.9 µM.

As to `O=c1ssc(=Nc2ccccc2)n1-c1ccccc1`, the TGI is 57.5 µM in the experiment with RPMI-8226 leukemia; 41.1 µM in the experiment with SN12C renal; above 100 µM in the experiment on SK-MEL-28 melanoma; 66.4 µM in the experiment on COLO 205 colon; 50.6 µM in the experiment with LOX IMVI melanoma; above 100 µM with UACC-62 melanoma. The TGI was above 100 µM in the experiment with HCC-2998 colon; 32.7 µM in the experiment on OVCAR-8 ovarian; above 100 µM with SF-539 CNS; 70.2 µM in the experiment on K-562 leukemia; above 100 µM with MOLT-4 leukemia; above 100 µM with NCI-H460 lung. Further, the TGI was 37.1 µM in the experiment with SF-268 CNS; 48.3 µM with M14 melanoma; 38.9 µM in the experiment on UACC-257 melanoma; above 100 µM in the experiment on SF-295 CNS; 68.2 µM with NCI/ADR-RES ovarian; above 100 µM with EKVX NSCLC.

`CCOC(=O)c1c(C)nc2c1c(CN(C)C)c(O)c1[nH]c(C)c(C)nc12`: the TGI in the experiment on RPMI-8226 leukemia is 43.8 µM; with SN12C renal, 38.4 µM; in the experiment with SK-MEL-28 melanoma it was 76.9 µM; in the experiment with COLO 205 colon, 40.4 µM; with LOX IMVI melanoma, 37.8 µM; in the experiment with UACC-62 melanoma, 30.3 µM. Besides, the TGI was 51 µM in the experiment on HCC-2998 colon; 60.4 µM in the experiment with OVCAR-8 ovarian; 49.5 µM in the experiment with SF-539 CNS; above 100 µM in the experiment on K-562 leukemia; 85.6 µM in the experiment with MOLT-4 leukemia; 61.1 µM with NCI-H460 lung. Besides, the TGI in the experiment on SF-268 CNS is 93.1 µM; in the experiment with M14 melanoma, above 100 µM; in the experiment with UACC-257 melanoma it was 61.3 µM; in the experiment with SF-295 CNS, 62.2 µM; in the experiment on NCI/ADR-RES ovarian, 76.6 µM; in the experiment with EKVX NSCLC, 92 µM.

Regarding `COc1c(Br)cc2c(c1OC)C(Br)CCC(Br)(Br)C2=O` (centres undefined), the TGI with RPMI-8226 leukemia turned out to be 6.06 µM; with SN12C renal it was 1.42 µM; in the experiment on SK-MEL-28 melanoma, 8.88 µM; in the experiment on COLO 205 colon, 4.1 µM; in the experiment with LOX IMVI melanoma it was 1.58 µM; in the experiment on UACC-62 melanoma, 13.1 µM. Besides, the TGI with HCC-2998 colon is 16.6 µM; in the experiment on OVCAR-8 ovarian, 1.53 µM; in the experiment with SF-539 CNS it was 5.25 µM; in the experiment with K-562 leukemia, 8.76 µM; in the experiment on MOLT-4 leukemia it was 5.73 µM; in the experiment on NCI-H460 lung it was 8.92 µM. Further, the TGI turned out to be 4.37 µM in the experiment with SF-268 CNS; 0.539 µM in the experiment with M14 melanoma; 14.7 µM in the experiment on UACC-257 melanoma; 6.77 µM in the experiment with SF-295 CNS; 2.77 µM with NCI/ADR-RES ovarian; 14.6 µM in the experiment with EKVX NSCLC.

With `NCCSS(=O)(=O)CCN`, the TGI in the experiment with RPMI-8226 leukemia, in the experiment on SN12C renal, in the experiment on SK-MEL-28 melanoma, in the experiment on COLO 205 colon, in the experiment on LOX IMVI melanoma and in the experiment with UACC-62 melanoma was above 100 µM throughout. In addition, the TGI in the experiment with HCC-2998 colon, in the experiment with OVCAR-8 ovarian, in the experiment on SF-539 CNS, with K-562 leukemia, with MOLT-4 leukemia and in the experiment with NCI-H460 lung was above 100 µM throughout. Also, the TGI in the experiment on SF-268 CNS, in the experiment on M14 melanoma, with SF-295 CNS, with NCI/ADR-RES ovarian and with EKVX NSCLC was above 100 µM each time.
